Patent publication US10857180B2, “Pharmaceutical composition for improving health, cure abnormalities and degenerative disease, achieve anti-aging effect of therapy and therapeutic effect on mammals and method thereof” (priority 2014, dated 2020)

Columns and labels:
[1] = system: Burkitt lymphoma (Namalwa line) cells; assay: Immunocytochemical analysis (H-Score) of Namalwa cells; format: cell-based, human; details: for amount of N-cadherin-positive cells: exception ^39K 2 mg/ml and ^24Mg 2 mg/ml
Source text: However, articles about an important role of EMT in the study of lymphomas and leukemias as well have started coming out recently, which is an interesting stage in the research into the tumor process as a whole, since these tumors radically differ from “usual solid neoplasias” in their histogenesis and, accordingly, in their phenotypic characteristics. Thus, such comprehensive research into adhesion proteins and cell cytoskeleton in the tumor cells of Burkitt lymphoma and acute promyelocyte leukemia after the action of the group of components under study is a relevant and contemporary attempt of a deeper analysis of the modification of a cell phenotype of tumor cells in order to assess changes in the degree of their malignancy. Materials and methods for leukemia cell lines HL-60 and Namalva and cell culture conditions will now be described. […] The first plate was for coloring cells with trypan blue and the second one was for the MTT assay.
Initial concentrations of the components.
After preparation of the corresponding concentrations of the components, they were introduced into appropriate wells of the plate in which HL-60 or Namalva cell were in complete medium. The volume of the culture medium with cells was 100 mcl per well and the concentration of cells in the suspension was 3×10^5 cells/ml (3×10^6/plate). After the components were placed into the wells, the final concentration (component+cells in the suspension) became smaller and corresponded to the values given in the Table of Concentration Characteristics.
After the incubation the medium was removed from the wells and the formed tetraformazan crystals were dissolved in 50 mcl of dimethylsulphoxide (Applichem, Germany). The results were fixed using a multi-well spectrophotometer with an excitation wave length of 540 nm. The percent of inhibition of cell viability was calculated using the following formula: IR=(1−A 540 (experiment)/A540 (control))×100%. In carrying out the immunocytochemical (ICC) assay, cells on microscope glasses (cytospin preparations) were fixed in the solution (methanol+acetone (1:1)) for 2 hours at t−20° C. and then incubated with a 1% solution of bovine serum albumin (BSA) for 20 minutes.
Then such monoclonal antibodies as CD44, N-cadherin, ICAM and IgM were applied for the period of time specified in the manufacturer's instructions (30 to 60 minute time intervals), after which Poly Vue imaging system conjugated with peroxidase was used and the enzyme activity was detected using diaminobenzidine (ThermoScientific) as a substrate. After the immunocytochemical reaction, the preparations were rinsed with water and counterstained with hematoxylin and eosin for 15 to 30 seconds. The results were analyzed by a quantitative estimation of cells with the marker expression (increased brown color of cells corresponded to a higher degree of expression of the marker) using a light microscope and assessed using the classical H-Score method: S=1×A+2×B+3×C, where S is the H-Score index the values of which are within the scope of 0 (protein is not detectable) to 300 (high-level expression in 100% of the cells), A is a percentage of weakly stained cells, B is the percentage of moderately stained cells, and C the percentage of strongly stained cells.

[2] = system: renal cell carcinoma (PA) cells; assay: Transformation of PA tumor cells into type A/B cells (trypan blue); format: cell-based, rat; details: for time for 80% of the transformation into phenotype A: total time 140 hours; for concentration of cells of type A at first calculation: 10 hours after start, both concentration models
Source text: Staining of Cell Suspension with Trypan Blue and Visual Control of Changes in the Shape, Color and Size of the Cells will now be discussed. The visual control method was based on the observation of state of the plasma membrane permeability after the action of materials under study, and reflects the degree of membrane's damage, making it possible to estimate an ability of nuclear proteins to absorb the dye.
To make the analysis, the cell suspension, after it was exposed to the action of materials, in a volume of 20 mcl was mixed with 20 mcl of trypan blue solution and resuspended. The obtained solution was placed in a hemocytometer chamber for visual analysis and quantitative estimation of the cells. To make the quantitative estimation of the cells, they were separated from the substrate using Versene solution and counted by staining cells with trypan. A change in the color of a cell was indicative of the violation of intactness of the cell membrane, and the more pronounced was the coloration, the less viable the cell was. […] They are easily distinguishable from dark damaged cells and easily identified with ordinary light microscope.
Primary cell culture for our in vitro experiments was obtained by enzymatic treatment of tumor material (using trypsin solution) from a strain of renal cell carcinoma (PA) in a rat Visually (after its removal from the animal), the tumor looked as a nodular fleshy growth of a whitish-pink color of rather dense consistency, marginated from other tissues by a joint capsule. The main morphological signs of PA tumor in the animal can be described as follows. Small (1.5 to 2 grams) fragments without vessels and blastic lesions were excised aseptically from the surgically removed tumor and then cut them with scissors to smaller pieces of 0.2 to 0.3 mm in size and cultured in a solution of trypsin. The culture medium contained the following components: RPMI-1640 (Sigma, USA) as the base plus 10% newborn calf serum and 40 mcg/ml of gentamicin. Trypsinization was performed in a humidified atmosphere of 5% CO2 at 37° C. with constant mixing of the contents in a magnetic stirrer. The isolated cells were washed three times in a culture medium by centrifuging and before starting the experiment a quantitative assessment of cells was carried out in the Goryaev chamber with supravital staining of the cells with trypan blue.
Analysis of the effect of all components on the renal cell carcinoma (PA) was conducted to determine the relationship between the amount of the preparation (concentration characteristics of the component) and the quantitative characteristics of the cells. Assessment of the effect of the components was carried out on 2 concentration models with 30 and 300 thousand original tumor cells. After the cells were cultured, cell suspensions were prepared in the plates with the culture medium and an effect of the preparations (in various concentrations) on the tumor cells was assessed. The experiment was started with the concentration of 10 mg of the active substance per 1 ml of the solvent (saline with 5% glucose).
The amount of culture medium in each well was 200 mcl for 30 thousand cells and 2 ml for 300 thousand cells, respectively. The amounts of drugs (active substances) for 2 concentration models differed according to the amount of cells and culture medium, i.e., the amount of drug in the experiment with 300 thousand cells was ten times as large as compared with the same in the experiment with 30 thousand cells. The result of effects of the components is shown in FIGS. 22, 23 for light isotope components and in FIG. 25 for the elements with natural distribution of isotopes. Assessment of the effect of the components was performed by comparing the external factors of cells (color, size, shape) prior to the experiment and after staining. […]

SMILES | IgM marker expression level [1] | expression of CD44 marker [1] | number of ICAM-positive cells, H-Score method ([1]; ^64Zn as sulfate 5 mcg/ml) | amount of N-cadherin-positive cells [1] | time of transformation of 100% initial tumor cells into phenotype A [2] [h] | A cells ([2]; ^64Zn 0.08 mg/ml) [%] | cells of type A ([2]; ^64Zn 0.128 mg/ml) | cells of type A obtainable with 1 microgram of ^64Zn sulfate ([2]; assuming 50% of cells transformed) [cells] | cells of type A obtainable with 1 microgram of ^64Zn sulfate ([2]; assuming 100% transformation) [cells] | changes (cell transformation) in the first 10 hours [2] [%] | time for 80% of the transformation into phenotype A [2] [h] | concentration of cells of type A at first calculation [2] [%] | cells of type A ([2]; ^24Mg 0.4 mg/ml) | cells of type A ([2]; ^24Mg 2 mg/ml) [%] | cells of type B ([2]; ^24Mg 2 mg/ml) [%] | cells of type A ([2]; ^24Mg 10 mg/ml) [%] | A cells ([2]; ^39K 2 mg/ml) | cells of type A ([2]; ^39K 10 mg/ml) [%]
O=S(=O)([O-])[O-].[64Zn+2] [^64Zn] | decrease in the expression level | significant inhibition | 210 | in most cases increased | ≤ 50 | 100 | about 30% | 23438 | 938 | 80 | ≤ 10 | – | – | – | – | – | – | –
O=S(=O)([O-])[O-].[24Mg+2] [^24Mg] | decrease in the expression level | – | – | in most cases increased | – | – | – | – | – | 62 | ≤ 45 | 100 | about 5% | 25 | 75 | 100 | – | –
[39K+].[Cl-] [^39K] | decrease in the expression level | significant inhibition | – | in most cases increased | 80 | – | – | – | – | 40 | ≤ 20 | 100 | – | – | – | – | About 50% | 100
